Measurements reported in patent publication US20060067959A1, “Compositions and methods for treatment of solar damage” (priority 2004, published 2006).

Key:
NIH 3T3 cells = system: NIH 3T3 cells
Description: NIH 3T3 cells were used in these studies. Cells were cultured in 24-well plates at a density of […] in 10% FBS/DMEM overnight. […] Cells were incubated for 72 hours before cell counting and morphological studies.

bovine tendon = biological target: T1, bovine tendon (Bos taurus, UniProt P02453+P02465); experiment: Melting temperature measurement of fixed tendon; details: treated 48 hours, n = 3; PA 0.5% in PBS, GA 0.625% in PBS; untreated control 55 ± 0.5; in °C
T1 construct: Fresh bovine tendon; from tissue; host or cells: bovine tendon
Description: (§1) The fixed tissues and fresh tissues were assayed for their melting temperature by heating tissue strips (1×2 cm^2, n=3). The melting temperature was recorded when tissues started to shrink.

Fischer 344 rats = experiment: Subcutaneous implantation of treated tissue
Source text: Three-week-old Fischer 344 rats were obtained from Harlan Sprague Dawley, Inc. (Indianapolis, Ind.). NIH and University of Southern California IACUC guidelines for the care and use of laboratory animals were observed. […] The samples were retrieved after 3 and 6 weeks postoperation, and samples were processed for H&E and von Kossa staining, the latter to determine the extent of calcification.

bovine pericardium [1] = experiment: Melting temperature measurement of fixed pericardium; details: treated 48 hours, n = 3; PA 0.5% in PBS, GA 0.625% in PBS; untreated control 70 ± 1.0; in °C
Description: as §1

bovine pericardium [2] = experiment: In vitro enzymatic degradation by collagenase, H&E histology; details: 24 h digestion, 0.5% proanthocyanidin or 0.625% GA treated, fresh tissues disintegrated
Description: Tissue integrity was checked at the end of the incubation using a standard histological method (hematoxylin-eosin (H&E)). […] At predetermined intervals, 1.0 mL solution was taken out and filtered through an 0.45-μM cellulose filter to separate solubilized collagen from insolubilized matrix. The amount of solubilized collagen was determined after total acid hydrolysis in 6N HCl for 24 h at 100° C. by measuring hydroxyproline (R. Kultan et al., “Collagen Treated with (+)-Catechin Becomes Resistant to the Action of Mammalian Collagenase,” Experientia 37: 221-223 (1981)). The results are expressed as a percentage of the total collagen solubilized.

human skin fibroblasts = experiment: Cell proliferation and collagen synthesis on treated pericardium; type: cell-based; details: discussion summary
Description: Discs, 15 mm in diameter, were punched out from PA-treated bovine pericardium and inserted into the bottom of 24-well plates, After washing and equilibrating with PBS, human skin fibroblasts, 8×10^4/well, third passage (kindly provided by Dr. Warren Garner, University of Southern California) were placed on top of the tissues. After 48 h of culture in 10% FBS/DMEM, the medium was changed to labeling medium ([^3H]thymidine, 10 μCi/mL, 0.5% FBS/DMEM) followed by a 24-h labeling period. Cells proliferation was assayed and collagen synthesis recorded as [^3H]OH-proline incorporation in a culture medium containing 25 μg/mL ascorbic acid, 25 μg/mL β-APN and 25 μCi/mL [^3H]proline in 0.5% FBS/DMEM after labeling for 48 h.

T1 sequence (P02453 162-1217 limits assumed): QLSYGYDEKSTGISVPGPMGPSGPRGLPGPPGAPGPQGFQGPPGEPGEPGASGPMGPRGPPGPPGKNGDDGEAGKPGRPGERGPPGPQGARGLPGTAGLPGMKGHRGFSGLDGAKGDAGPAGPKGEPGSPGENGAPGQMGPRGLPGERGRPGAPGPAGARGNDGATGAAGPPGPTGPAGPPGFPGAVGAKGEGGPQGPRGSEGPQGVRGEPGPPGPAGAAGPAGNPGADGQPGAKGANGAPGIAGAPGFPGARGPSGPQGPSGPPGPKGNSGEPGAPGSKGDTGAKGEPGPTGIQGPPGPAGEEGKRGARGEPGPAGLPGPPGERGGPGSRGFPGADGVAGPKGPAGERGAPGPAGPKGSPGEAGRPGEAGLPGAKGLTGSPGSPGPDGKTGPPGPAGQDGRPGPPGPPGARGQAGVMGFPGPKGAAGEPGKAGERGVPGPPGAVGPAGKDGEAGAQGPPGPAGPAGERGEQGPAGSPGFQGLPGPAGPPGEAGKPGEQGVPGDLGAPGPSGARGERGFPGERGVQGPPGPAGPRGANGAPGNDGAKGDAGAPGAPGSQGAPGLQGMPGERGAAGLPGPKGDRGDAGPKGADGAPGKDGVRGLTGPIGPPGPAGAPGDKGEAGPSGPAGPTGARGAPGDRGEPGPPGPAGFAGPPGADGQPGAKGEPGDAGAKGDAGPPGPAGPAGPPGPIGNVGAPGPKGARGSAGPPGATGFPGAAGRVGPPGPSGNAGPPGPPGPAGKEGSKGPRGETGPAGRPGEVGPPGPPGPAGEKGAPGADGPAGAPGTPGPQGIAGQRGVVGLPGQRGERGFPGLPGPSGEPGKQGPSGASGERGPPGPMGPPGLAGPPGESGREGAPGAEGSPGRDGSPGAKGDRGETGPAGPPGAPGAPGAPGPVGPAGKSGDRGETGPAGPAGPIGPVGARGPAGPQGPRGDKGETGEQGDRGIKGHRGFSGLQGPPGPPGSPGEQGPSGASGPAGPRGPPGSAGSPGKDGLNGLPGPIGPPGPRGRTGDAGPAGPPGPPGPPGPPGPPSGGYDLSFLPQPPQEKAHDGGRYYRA
T1 sequence (P02465 80-1117 limits assumed): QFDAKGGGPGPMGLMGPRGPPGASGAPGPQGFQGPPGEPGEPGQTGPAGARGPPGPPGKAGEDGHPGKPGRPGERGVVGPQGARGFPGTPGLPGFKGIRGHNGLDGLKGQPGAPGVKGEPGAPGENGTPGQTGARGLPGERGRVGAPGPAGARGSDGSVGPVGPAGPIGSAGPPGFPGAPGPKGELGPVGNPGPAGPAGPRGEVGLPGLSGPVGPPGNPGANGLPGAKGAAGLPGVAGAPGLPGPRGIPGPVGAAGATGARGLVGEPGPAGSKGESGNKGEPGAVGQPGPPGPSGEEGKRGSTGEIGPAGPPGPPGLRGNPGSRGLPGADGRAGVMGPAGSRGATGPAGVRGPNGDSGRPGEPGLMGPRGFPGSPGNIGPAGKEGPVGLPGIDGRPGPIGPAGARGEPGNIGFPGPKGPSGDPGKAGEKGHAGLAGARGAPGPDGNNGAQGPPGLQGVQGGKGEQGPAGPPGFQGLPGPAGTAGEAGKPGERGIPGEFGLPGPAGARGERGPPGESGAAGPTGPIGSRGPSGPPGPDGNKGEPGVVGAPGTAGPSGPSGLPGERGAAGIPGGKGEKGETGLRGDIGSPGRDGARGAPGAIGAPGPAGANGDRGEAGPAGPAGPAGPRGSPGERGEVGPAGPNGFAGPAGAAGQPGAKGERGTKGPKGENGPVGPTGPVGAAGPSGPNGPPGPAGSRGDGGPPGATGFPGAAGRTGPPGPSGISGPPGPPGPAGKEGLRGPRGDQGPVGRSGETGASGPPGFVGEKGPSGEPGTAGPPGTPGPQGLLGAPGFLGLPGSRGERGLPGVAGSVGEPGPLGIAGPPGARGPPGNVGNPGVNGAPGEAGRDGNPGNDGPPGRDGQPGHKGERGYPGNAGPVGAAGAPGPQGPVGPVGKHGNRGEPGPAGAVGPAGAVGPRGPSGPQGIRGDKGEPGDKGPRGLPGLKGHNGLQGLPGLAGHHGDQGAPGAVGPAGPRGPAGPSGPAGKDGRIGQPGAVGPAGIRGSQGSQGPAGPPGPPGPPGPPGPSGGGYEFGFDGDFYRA

O=CCCCC=O [GA, glutaraldehyde]
cytotoxicity (FIG. 1 legend) (NIH 3T3 cells): cytotoxicity
cytotoxicity of treated tissue (NIH 3T3 cells): continues to be cytotoxic
concentration at which cells could not survive (NIH 3T3 cells; mouse, 72 h): > 600 ng/mL
Melting temperature, Tendon (bovine tendon): 84 ± 1.0
degradation of fixed tissue after subcutaneous implantation (Fischer 344 rats; periods ranging from 3 and 6 weeks (discussion)): no apparent degradation
calcification (Von Kossa staining) (Fischer 344 rats; rat, in vivo): dystrophic calcification
calcification after implantation (Fischer 344 rats; rat, in vivo): encourages dystrophic calcification
tissue reaction to implant (Fischer 344 rats; rat, in vivo): lesser inflammatory reaction
implant degradation (Fischer 344 rats; six weeks postoperatively, control completely degraded): still intact
implant integrity (Fischer 344 rats; three weeks postoperatively, control tissues start to disaggregate): retain their integrity
Melting temperature, Pericardium (bovine pericardium [1]): 94 ± 1.5
collagen fibril structure after collagenase digestion (bovine pericardium [2]): remained intact
rate of collagen synthesis of fibroblasts (human skin fibroblasts): inhibits collagen synthesis
